{"source": "ChEMBL document CHEMBL5143672", "about": "“New diarylpentanoids and chalcones as potential antimicrobial adjuvants” (2022)", "key": {"Salmonella typhimurium": {"system": "Salmonella typhimurium", "assay": "Antibacterial activity against Salmonella enterica serovar typhimurium SL1344 (SE03) assessed as inhibition of bacterial growth by broth microdilution method", "assay_type": "functional, Salmonella enterica subsp. enterica serovar Typhimurium"}, "Escherichia coli [1]": {"system": "Escherichia coli", "assay": "Antibacterial activity against Escherichia coli ATCC 25922 assessed as inhibition of bacterial growth by broth microdilution method", "assay_type": "functional"}, "Staphylococcus aureus [2]": {"system": "Staphylococcus aureus", "assay": "Antibacterial activity against methicillin and ofloxacin-resistant Staphylococcus aureus 272123 assessed as inhibition of bacterial growth by broth microdilution method", "assay_type": "functional"}, "Staphylococcus aureus [3]": {"system": "Staphylococcus aureus", "assay": "Antibacterial activity against Staphylococcus aureus ATCC 25923 assessed as inhibition of bacterial growth by broth microdilution method", "assay_type": "functional"}, "[4]": {"assay": "Inhibition of quorum sensing system in Chromobacterium violaceum CV026 assessed as reduction in pigment production co-cultured with Sphingomonas paucimobilis Ezf 10-17 for 24 to 48 hrs", "conditions": "time 24-48 hrs"}, "[5]": {"system": "Salmonella enterica subsp. enterica serovar Typhimurium", "assay": "Inhibition of Multidrug resistance efflux pump in Salmonella enterica serovar typhimurium SL1344 (SE03) assessed as relative fluorescence index using ethidium bromide as substrate at 50 uM by fluorescence based analysis"}, "Enterococcus faecalis [6]": {"system": "Enterococcus faecalis", "assay": "Antibacterial activity against Enterococcus faecalis ATCC 29212 assessed as inhibition of bacterial growth by broth microdilution method", "assay_type": "functional"}, "Staphylococcus aureus [7]": {"system": "Staphylococcus aureus", "assay": "Inhibition of biofilm formation in Staphylococcus aureus ATCC 25923 at 100 uM incubated for 48 hrs by crystal violet staining based analysis", "assay_type": "functional"}, "Pseudomonas aeruginosa [8]": {"system": "Pseudomonas aeruginosa", "assay": "Antibacterial activity against Pseudomonas aeruginosa ATCC 27853 assessed as inhibition of bacterial growth by broth microdilution method", "assay_type": "functional"}, "Enterococcus faecalis [9]": {"system": "Enterococcus faecalis", "assay": "Antimicrobial adjuvant activity against Enterococcus faecalis B3/101 assessed as potentiation of vancomycin-induced antibacterial activity by measuring fold reduction in vancomycin MIC at 64 ug/ml by broth microdilution method", "assay_type": "functional", "conditions": "dose 64 µg/ml"}, "Candida albicans": {"system": "Candida albicans", "assay": "Antifungal activity against Candidia albicans ATCC 10231 assessed as inhibition of fungal growth by broth microdilution method", "assay_type": "functional"}, "Trichophyton rubrum": {"system": "Trichophyton rubrum", "assay": "Antifungal activity against Trichophyton rubrum FF5 assessed as inhibition of fungal growth by broth microdilution method", "assay_type": "functional"}, "Aspergillus fumigatus": {"system": "Aspergillus fumigatus", "assay": "Antifungal activity against Aspergillus fumigatus ATCC 204305 assessed as inhibition of fungal growth by broth microdilution method", "assay_type": "functional"}, "[10]": {"assay": "Inhibition of Multidrug resistance efflux pump in Staphylococcus aureus 272123 assessed as relative fluorescence index using ethidium bromide as substrate at 50 uM by fluorescence based analysis"}, "[11]": {"assay": "Inhibition of quorum sensing system in Chromobacterium violaceum wild type 85 assessed as reduction in pigment production incubated for 24 to 48 hrs", "conditions": "time 24-48 hrs"}, "Serratia marcescens": {"system": "Serratia marcescens", "assay": "Inhibition of quorum sensing system in Serratia marcescens AS-1 assessed as reduction in pigment production incubated for 24 to 48 hrs", "conditions": "time 24-48 hrs"}, "Staphylococcus aureus [12]": {"system": "Staphylococcus aureus", "assay": "Inhibition of biofilm formation in Staphylococcus aureus 272123 at 100 uM incubated for 48 hrs by crystal violet staining based analysis", "assay_type": "functional"}, "[13]": {"system": "Salmonella enterica subsp. enterica serovar Typhimurium", "assay": "Inhibition of Multidrug resistance efflux pump in Salmonella enterica serovar typhimurium SL1344 (SE03) assessed as relative fluorescence index using ethidium bromide as substrate at 25 uM by fluorescence based analysis"}, "Escherichia coli [14]": {"system": "Escherichia coli", "assay": "Antimicrobial adjuvant activity against ESBL-producing Escherichia coli SA/2 assessed as potentiation of cefotaxime-induced antibacterial activity by measuring fold reduction in cefotaxime MIC at 64 ug/ml by broth microdilution method", "assay_type": "functional", "conditions": "dose 64 µg/ml"}, "[15]": {"system": "Staphylococcus epidermidis", "assay": "Antibacterial activity against Staphylococcus epidermidis ATCC 12228 assessed as inhibition zone incubated for 24 hrs by disc diffusion method", "assay_type": "functional"}, "Escherichia coli [16]": {"system": "Escherichia coli", "assay": "Antibacterial activity against Escherichia coli ATCC 25922 assessed as inhibition zone incubated for 24 hrs by disc diffusion method", "assay_type": "functional"}, "Klebsiella pneumoniae": {"system": "Klebsiella pneumoniae", "assay": "Antibacterial activity against Klebsiella pneumoniae ATCC 13883 assessed as inhibition zone incubated for 24 hrs by disc diffusion method", "assay_type": "functional"}, "Staphylococcus aureus [17]": {"system": "Staphylococcus aureus", "assay": "Antibacterial activity against Staphylococcus aureus ATCC 25923 assessed as inhibition zone incubated for 24 hrs by disc diffusion method", "assay_type": "functional"}, "Pseudomonas aeruginosa [18]": {"system": "Pseudomonas aeruginosa", "assay": "Antibacterial activity against Pseudomonas aeruginosa ATCC 27853 assessed as inhibition zone incubated for 24 hrs by disc diffusion method", "assay_type": "functional"}}}
{"smiles": "COc1ccccc1/C=C1\\CCC/C(=C\\c2ccccc2OC)C1=O", "values": [{"measurement": "MIC", "setting": "Salmonella typhimurium", "value": "> 64", "unit": "µg/mL"}, {"measurement": "MIC", "setting": "Escherichia coli [1]", "value": "> 64", "unit": "µg/mL"}, {"measurement": "MIC", "setting": "Staphylococcus aureus [2]", "value": "> 64", "unit": "µg/mL"}, {"measurement": "MIC", "setting": "Staphylococcus aureus [3]", "value": "> 64", "unit": "µg/mL"}, {"measurement": "Activity", "setting": "[4]", "value": 0, "unit": "mm"}, {"measurement": "RFU", "setting": "[5]", "value": -0.31}, {"measurement": "MIC", "setting": "Enterococcus faecalis [6]", "value": "> 64", "unit": "µg/mL"}, {"measurement": "inhibition at 100 µM", "setting": "Staphylococcus aureus [7]", "value": 0, "unit": "%"}, {"measurement": "MIC", "setting": "Pseudomonas aeruginosa [8]", "value": "> 64", "unit": "µg/mL"}, {"measurement": "fold change (FC)", "setting": "Enterococcus faecalis [9]", "value": 2}, {"measurement": "MIC", "setting": "Candida albicans", "value": "> 128", "unit": "µg/mL"}, {"measurement": "MIC", "setting": "Trichophyton rubrum", "value": "> 128", "unit": "µg/mL"}, {"measurement": "MIC", "setting": "Aspergillus fumigatus", "value": "> 128", "unit": "µg/mL"}, {"measurement": "RFU", "setting": "[10]", "value": 0.48}, {"measurement": "Activity", "setting": "[11]", "value": 0, "unit": "mm"}, {"measurement": "Activity", "setting": "Serratia marcescens", "value": 0, "unit": "mm"}, {"measurement": "inhibition at 100 µM", "setting": "Staphylococcus aureus [12]", "value": 65.9, "unit": "%"}]}
{"smiles": "COc1cc(OC)c(OC)cc1/C=C1\\CSc2ccccc2C1=O", "values": [{"measurement": "MIC", "setting": "Salmonella typhimurium", "value": "> 64", "unit": "µg/mL"}, {"measurement": "MIC", "setting": "Escherichia coli [1]", "value": "> 64", "unit": "µg/mL"}, {"measurement": "MIC", "setting": "Staphylococcus aureus [2]", "value": "> 64", "unit": "µg/mL"}, {"measurement": "MIC", "setting": "Staphylococcus aureus [3]", "value": "> 64", "unit": "µg/mL"}, {"measurement": "Activity", "setting": "[4]", "value": 0, "unit": "mm"}, {"measurement": "RFU", "setting": "[5]", "value": -0.02}, {"measurement": "MIC", "setting": "Enterococcus faecalis [6]", "value": "> 64", "unit": "µg/mL"}, {"measurement": "inhibition at 100 µM", "setting": "Staphylococcus aureus [7]", "value": 0, "unit": "%"}, {"measurement": "MIC", "setting": "Pseudomonas aeruginosa [8]", "value": "> 64", "unit": "µg/mL"}, {"measurement": "fold change (FC)", "setting": "Enterococcus faecalis [9]", "value": 2}, {"measurement": "MIC", "setting": "Candida albicans", "value": "> 128", "unit": "µg/mL"}, {"measurement": "MIC", "setting": "Trichophyton rubrum", "value": "> 128", "unit": "µg/mL"}, {"measurement": "MIC", "setting": "Aspergillus fumigatus", "value": "> 128", "unit": "µg/mL"}, {"measurement": "RFU", "setting": "[10]", "value": 0.36}, {"measurement": "Activity", "setting": "[11]", "value": 0, "unit": "mm"}, {"measurement": "Activity", "setting": "Serratia marcescens", "value": 0, "unit": "mm"}, {"measurement": "inhibition at 100 µM", "setting": "Staphylococcus aureus [12]", "value": 74.1, "unit": "%"}]}
{"smiles": "N#CC(C#N)=NNc1cccc(Cl)c1", "values": [{"measurement": "RFU", "setting": "[13]", "value": 0.3}]}
{"smiles": "COc1cccc(/C=C2\\COC/C(=C\\c3cccc(OC)c3OC)C2=O)c1OC", "values": [{"measurement": "MIC", "setting": "Salmonella typhimurium", "value": "> 64", "unit": "µg/mL"}, {"measurement": "MIC", "setting": "Escherichia coli [1]", "value": "> 64", "unit": "µg/mL"}, {"measurement": "MIC", "setting": "Staphylococcus aureus [2]", "value": "> 64", "unit": "µg/mL"}, {"measurement": "MIC", "setting": "Staphylococcus aureus [3]", "value": "> 64", "unit": "µg/mL"}, {"measurement": "Activity", "setting": "[4]", "value": 31, "unit": "mm"}, {"measurement": "RFU", "setting": "[5]", "value": 0.12}, {"measurement": "MIC", "setting": "Enterococcus faecalis [6]", "value": "> 64", "unit": "µg/mL"}, {"measurement": "inhibition at 100 µM", "setting": "Staphylococcus aureus [7]", "value": 0, "unit": "%"}, {"measurement": "MIC", "setting": "Pseudomonas aeruginosa [8]", "value": "> 64", "unit": "µg/mL"}, {"measurement": "fold change (FC)", "setting": "Enterococcus faecalis [9]", "value": 32}, {"measurement": "MIC", "setting": "Candida albicans", "value": "> 128", "unit": "µg/mL"}, {"measurement": "MIC", "setting": "Trichophyton rubrum", "value": "> 128", "unit": "µg/mL"}, {"measurement": "fold change (FC)", "setting": "Escherichia coli [14]", "value": 16}, {"measurement": "MIC", "setting": "Aspergillus fumigatus", "value": "> 128", "unit": "µg/mL"}, {"measurement": "RFU", "setting": "[10]", "value": 0.44}, {"measurement": "Activity", "setting": "[11]", "value": 0, "unit": "mm"}, {"measurement": "Activity", "setting": "Serratia marcescens", "value": 0, "unit": "mm"}, {"measurement": "inhibition at 100 µM", "setting": "Staphylococcus aureus [12]", "value": 46.9, "unit": "%"}]}
{"smiles": "O=C1/C(=C/c2ccc(Br)cc2)COC/C1=C\\c1ccc(Br)cc1", "values": [{"measurement": "MIC", "setting": "Salmonella typhimurium", "value": "> 64", "unit": "µg/mL"}, {"measurement": "MIC", "setting": "Escherichia coli [1]", "value": "> 64", "unit": "µg/mL"}, {"measurement": "MIC", "setting": "Staphylococcus aureus [2]", "value": "> 64", "unit": "µg/mL"}, {"measurement": "MIC", "setting": "Staphylococcus aureus [3]", "value": "> 64", "unit": "µg/mL"}, {"measurement": "Activity", "setting": "[4]", "value": 0, "unit": "mm"}, {"measurement": "RFU", "setting": "[5]", "value": 0.06}, {"measurement": "MIC", "setting": "Enterococcus faecalis [6]", "value": "> 64", "unit": "µg/mL"}, {"measurement": "inhibition at 100 µM", "setting": "Staphylococcus aureus [7]", "value": 0, "unit": "%"}, {"measurement": "MIC", "setting": "Pseudomonas aeruginosa [8]", "value": "> 64", "unit": "µg/mL"}, {"measurement": "MIC", "setting": "Candida albicans", "value": "> 128", "unit": "µg/mL"}, {"measurement": "MIC", "setting": "Trichophyton rubrum", "value": "> 128", "unit": "µg/mL"}, {"measurement": "fold change (FC)", "setting": "Escherichia coli [14]", "value": 8}, {"measurement": "MIC", "setting": "Aspergillus fumigatus", "value": "> 128", "unit": "µg/mL"}, {"measurement": "RFU", "setting": "[10]", "value": 0.53}, {"measurement": "Activity", "setting": "[11]", "value": 0, "unit": "mm"}, {"measurement": "Activity", "setting": "Serratia marcescens", "value": 0, "unit": "mm"}, {"measurement": "inhibition at 100 µM", "setting": "Staphylococcus aureus [12]", "value": 51.2, "unit": "%"}]}
{"smiles": "COc1cccc(/C=C2\\CCc3ccccc3C2=O)c1", "values": [{"measurement": "inhibition zone (IZ)", "setting": "[15]", "value": 15, "unit": "mm"}, {"measurement": "inhibition zone (IZ)", "setting": "Escherichia coli [16]", "value": 17, "unit": "mm"}, {"measurement": "inhibition zone (IZ)", "setting": "Klebsiella pneumoniae", "value": 18, "unit": "mm"}, {"measurement": "inhibition zone (IZ)", "setting": "Staphylococcus aureus [17]", "value": 18, "unit": "mm"}, {"measurement": "inhibition zone (IZ)", "setting": "Pseudomonas aeruginosa [18]", "value": 18, "unit": "mm"}]}
